Test results: ChEMBL document CHEMBL4033728, “Synthesis and structure-activity relationship study of novel quinazolinone-based inhibitors of MurA” (Bioorg Med Chem Lett, 2017)
Converted amounts (≈) assume the structure as drawn.

What was measured:
Escherichia coli [1] = experiment: Inhibition of Escherichia coli MurA assessed as residual enzyme activity at 100 uM using UDP-GlcNAc and PEP as substrate incubated for 15 mins by Malachite green method
Escherichia coli [2] = experiment: Antibacterial activity against Escherichia coli ATCC 25922 incubated for 18 to 24 hrs by broth microdilution method; assay type: functional
Staphylococcus aureus [3] = experiment: Antibacterial activity against Staphylococcus aureus ATCC 29213 incubated for 18 to 24 hrs by broth microdilution method; assay type: functional
[4] = Inhibition of Escherichia coli MurA using UDP-GlcNAc and PEP as substrate incubated for 15 mins by Malachite green method
Staphylococcus aureus [5] = experiment: Antibacterial activity against Staphylococcus aureus; assay type: functional
Escherichia coli [6] = experiment: Antibacterial activity against Escherichia coli; assay type: functional
[7] = Inhibition of Escherichia coli MurA

Row | Structure (SMILES) | Activity (Escherichia coli [1]) [%] | MIC (Escherichia coli [2]) [µg/mL] | MIC (Staphylococcus aureus [3]) [µg/mL] | IC50 [4] [µM] | MIC (Staphylococcus aureus [5]) [µg/mL] | MIC (Escherichia coli [6]) [µg/mL] | IC50 [7] [µM]
1 | O=c1[nH]c(-c2ccc(-c3cc[nH]n3)o2)nc2ccccc12 | 100 | > 128 | > 128 |  |  |  | 
2 | O=c1[nH]c(-c2ccc(Cl)cc2)nc2ccccc12 | 72 | > 128 | > 128 |  |  |  | 
3 | CCCCCCCOc1ccc(-c2nc3ccccc3c(=O)[nH]2)cc1 |  | > 128 | > 128 | 84 |  |  | 
4 | O=c1[nH]c(-c2ccc(-c3ccccc3)s2)nc2ccccc12 |  | > 128 | > 128 | 17 |  |  | 
5 | Cc1ccc(-c2nc3ccccc3c(=O)[nH]2)o1 |  | > 128 | > 128 | 81 |  |  | 
6 | O=Cc1ccc(-c2nc3ccccc3c(=O)[nH]2)cc1 | 58 | > 128 | > 128 |  |  |  | 
7 | COC(=O)Cn1c(-c2ccco2)nc2ccccc2c1=O | 66 | > 128 | > 128 |  |  |  | 
8 | O=c1[nH]c(-c2ccc(Br)o2)nc2ccccc12 |  | > 128 | > 128 | 56 |  |  | 
9 | O=C(O)c1ccc(-c2nc3ccccc3c(=O)[nH]2)cc1 | 86 | > 128 | > 128 |  |  |  | 
10 | COc1ccc(-c2nc(O)c3ccccc3n2)cc1 | 71 | > 128 | > 128 |  |  |  | 
11 | O=c1[nH]c(-c2ccc(CO)o2)nc2ccccc12 | 99 | > 128 | > 128 |  |  |  | 
12 | Oc1nc(-c2cccs2)nc2ccccc12 | 83 | > 128 | > 128 |  |  |  | 
13 | COC(=O)c1ccc(COc2ccc(-c3nc4ccccc4c(=O)[nH]3)cc2)cc1 | 100 | > 128 | > 128 |  |  |  | 
14 | O=c1[nH]c(-c2cccc(Br)n2)nc2ccccc12 | 91 | > 128 | > 128 |  |  |  | 
15 | O=c1c2ccccc2nc(-c2ccco2)n1CCO | 91 | > 128 | > 128 |  |  |  | 
16 | CC(C)n1c(-c2ccc([N+](=O)[O-])o2)nc2ccccc2c1=O |  | 2 (≈ 6.68 µM) | 8 (≈ 26.7 µM) | 87 |  |  | 
17 | O=c1[nH]c(-c2ccc(-c3ccncc3)cc2)nc2ccccc12 | 100 | > 128 | > 128 |  |  |  | 
18 | O=c1[nH]c(-c2ccc(OCc3cccc(Cl)c3)cc2)nc2ccccc12 | 95 | > 128 | > 128 |  |  |  | 
19 | O=c1[nH]c(-c2ccnc(N3CCOCC3)c2)nc2ccccc12 | 70 | > 128 | > 128 |  |  |  | 
20 | O=c1[nH]c(-c2cccc(Cl)c2)nc2ccccc12 | 68 | > 128 | > 128 |  |  |  | 
21 | O=c1[nH]c(-c2ccc(Cn3cncn3)nc2)nc2ccccc12 | 80 | > 128 | > 128 |  |  |  | 
22 | O=c1[nH]c(-c2ccc(F)c(F)c2)nc2ccccc12 | 67 | > 128 | > 128 |  |  |  | 

Row | Structure (SMILES) | Activity (Escherichia coli [1]) [%] | MIC (Escherichia coli [2]) [µg/mL] | MIC (Staphylococcus aureus [3]) [µg/mL] | IC50 [4] [µM] | MIC (Staphylococcus aureus [5]) [µg/mL] | MIC (Escherichia coli [6]) [µg/mL] | IC50 [7] [µM]
23 | O=c1[nH]c(-c2c[nH]cn2)nc2ccccc12 | 88 | > 128 | > 128 |  |  |  | 
24 | COC(=O)c1cccc(COc2ccc(-c3nc4ccccc4c(=O)[nH]3)cc2)c1 | 100 | > 128 | > 128 |  |  |  | 
25 | O=c1[nH]c(-c2ccco2)nc2ccsc12 |  | > 128 | > 128 | 94 |  |  | 
26 | O=c1[nH]c(-c2cccc(OCc3ccc(F)cc3)c2)nc2ccccc12 |  | > 128 | > 128 | 19 |  |  | 
27 | O=c1[nH]c(-c2ccc(N3CCOCC3)nc2)nc2ccccc12 | 64 | > 128 | > 128 |  |  |  | 
28 | O=c1[nH]c(-c2cccc(OCc3ccc(C(F)(F)F)cc3)c2)nc2ccccc12 | 88 | > 128 | > 128 |  |  |  | 
29 | O=c1[nH]c(-c2cccc(OCc3ccc(Cl)cc3)c2)nc2ccccc12 |  | > 128 | > 128 | 8 |  |  | 
30 | O=c1[nH]c(-c2ccc(O)cc2)nc2ccsc12 | 80 | > 128 | > 128 |  |  |  | 
31 | O=C(O)Cn1c(-c2ccoc2)nc2ccccc2c1=O | 74 | > 128 | > 128 |  |  |  | 
32 | Cc1ccc(COc2ccc(-c3nc4ccccc4c(=O)[nH]3)cc2)cc1 | 97 | > 128 | > 128 |  |  |  | 
33 | COc1ccc2occ(-c3nc4ccccc4c(=O)[nH]3)c(=O)c2c1 | 100 | > 128 | > 128 |  |  |  | 
34 | N#Cc1cccc(-c2nc3ccccc3c(=O)[nH]2)c1 | 62 | > 128 | > 128 |  |  |  | 
35 | COC(=O)c1ccc(COc2cccc(-c3nc4ccccc4c(=O)[nH]3)c2)cc1 |  | > 128 | > 128 | 21 |  |  | 
36 | O=c1[nH]c(-c2ccc3ccccc3n2)nc2ccccc12 | 100 | > 128 | > 128 |  |  |  | 
37 | O=C(O)c1cccc(COc2ccc(-c3nc4ccccc4c(=O)[nH]3)cc2)c1 | 85 | > 128 | > 128 |  |  |  | 
38 | O=C(O)c1ccc(COc2ccc(-c3nc4ccccc4c(=O)[nH]3)cc2)cc1 | 92 | > 128 | > 128 |  |  |  | 
39 | O=c1[nH]c(-c2cccc(Br)c2)nc2ccccc12 | 65 | > 128 | > 128 |  |  |  | 
40 | O=c1[nH]c(-c2ccoc2)nc2ccccc12 | 91 | > 128 | > 128 |  |  |  | 
41 | O=c1[nH]c(-c2ccc(OCc3ccccc3)cc2)nc2ccsc12 |  | ≥ 128 | ≥ 128 | 22 to 30 |  |  | 
42 | O=c1[nH]c(-c2ccc(-c3ccccc3)s2)nc2ccsc12 |  | > 128 | ≥ 128 | 22 to 30 |  |  | 
43 | N#Cc1ccc(-c2nc3ccccc3c(=O)[nH]2)cc1 | 54 | > 128 | > 128 |  |  |  | 
44 | O=c1c2ccccc2nc(-c2ccco2)n1Cc1ccccc1 | 100 | > 128 | > 128 |  |  |  | 

Row | Structure (SMILES) | Activity (Escherichia coli [1]) [%] | MIC (Escherichia coli [2]) [µg/mL] | MIC (Staphylococcus aureus [3]) [µg/mL] | IC50 [4] [µM] | MIC (Staphylococcus aureus [5]) [µg/mL] | MIC (Escherichia coli [6]) [µg/mL] | IC50 [7] [µM]
45 | Cn1c(-c2ccco2)nc2ccccc2c1=O |  | > 128 | > 128 | 72 |  |  | 
46 | O=c1[nH]c(-c2cc(F)cc3c2OCOC3)nc2ccccc12 | 99 | > 128 | > 128 |  |  |  | 
47 | O=c1[nH]c(-c2ccc(OCc3ccccc3)cc2)nc2ccccc12 |  | > 128 | > 128 | 36 |  |  | 
48 | O=c1[nH]c(-c2cn3ccsc3n2)nc2ccccc12 | 82 | > 128 | 128 (≈ 477 µM) |  |  |  | 
49 | O=c1[nH]c(-c2ccc([N+](=O)[O-])cc2)nc2ccccc12 | 99 | > 128 | > 128 |  |  |  | 
50 | O=c1[nH]c(-c2cccc(OCc3ccccc3)c2)nc2ccccc12 |  | > 128 | > 128 | 23 |  |  | 
51 | CC(C)n1c(-c2ccco2)nc2ccccc2c1=O | 93 | > 128 | 32 (≈ 126 µM) |  |  |  | 
52 | O=c1[nH]c(-c2ccc(-c3ccccc3)cc2)nc2ccccc12 |  | > 128 | > 128 | 21 |  |  | 
53 | O=c1[nH]c(/C=C/c2ccccc2)nc2ccccc12 |  | > 128 | > 128 | 51 |  |  | 
54 | CN(C)c1ccc(-c2nc(O)c3ccccc3n2)cc1 | 97 | > 128 | > 128 |  |  |  | 
55 | Oc1nc(-c2ccncc2)nc2ccccc12 | 82 | > 128 | > 128 |  |  |  | 
56 | O=c1[nH]c(-c2ccc(O)cc2)nc2ccccc12 | 91 | > 128 | > 128 |  |  |  | 
57 | Oc1nc(-c2ccc(F)cc2)nc2ccccc12 | 89 | > 128 | > 128 |  |  |  | 
58 | O=c1[nH]c(-c2ccc3c(c2)OCO3)nc2ccccc12 | 83 | > 128 | > 128 |  |  |  | 
59 | O=c1[nH]c(-c2ccc3cccc(O)c3n2)nc2ccccc12 | 84 | > 128 | > 128 |  |  |  | 
60 | O=c1[nH]c(-c2ccco2)nc2ccccc12 |  | > 128 | > 128 | 101 |  |  | 
61 | O=C(O)c1ccc(COc2cccc(-c3nc4ccccc4c(=O)[nH]3)c2)cc1 | 85 | > 128 | > 128 |  |  |  | 
62 | O=c1[nH]c(-c2cccc(OCc3cccc(Cl)c3)c2)nc2ccccc12 | 98 | > 128 | > 128 |  |  |  | 
63 | O=c1[nH]c(-c2ccc([N+](=O)[O-])o2)nc2ccccc12 |  | 1 (≈ 3.89 µM) | 8 (≈ 31.1 µM) | 47 |  |  | 
64 | O=c1[nH]c(-c2cccc(O)c2)nc2ccccc12 | 80 | > 128 | > 128 |  |  |  | 
65 | Cn1cc[n+](C(Cn2cnc3ccc(Cl)cc3c2=O)c2cc3cc(Br)ccc3o2)c1.[Cl-] (configuration not stated) |  |  |  |  | 16 | 128 | 
66 | C[C@@H]1O[C@@H]1P(=O)(O)O [FOSFOMYCIN] |  |  |  |  | 16 (≈ 116 µM) | 16 (≈ 116 µM) | 8.8
